Results as given in patent US20220227762A1, “AMIDE-SUBSTITUTED IMIDAZO COMPOUNDS AS SELECTIVE INHIBITORS OF INDOLEAMINE 2,3-DIOXYGENASES” (BEIGENE, LTD., priority 2019, published 2022).
Where two headings read alike, the source gives them in different places.

Experiments:
IDO1 = biological target: T1, IDO1 (Homo sapiens, UniProt P14902); experiment: HeLa Cell-Based IDO1 Kyn (Kynurenine) Production Assay
T1 construct: endogenous in cells; host or cells: HeLa cells (American Type Culture Collection), induced with human recombinant IFN-γ
Method: HeLa Cell-Based IDO1 Kyn (Kynurenine) Production Assay:
The inhibitory activity of IDO1 inhibitors is determined by using a colorimetric reaction to measure Kyn generated from L-Trp (L-Tryptophon) oxidation by cellular IDO1 in HeLa cells after induction of IDO1 expression by IFN-γ. Hela cells were obtained from the American Type Culture Collection and recovered in 10% FBS-containing phenol red-free DMEM medium. Cells were plated onto a 96-well plate (100 μl/well) at 8000 cells per well and kept at 37° C. in a humidified incubator supplied with 5% CO2. 4 hours later, Human recombinant IFN-γ (8901SC, CST) was added to cells (final concentration 100 ng/mL) to stimulate endogenous IDO1. Compounds at different concentrations diluted in dimethylsulfoxide (DMSO) were added simultaneously with IFN-γ and 0.4 mM L-Trp. Cells were kept at 37° C. in a humidified incubator supplied with 5% CO2. After 48 hours of incubation, 100 μl supernatant from each well was removed to a new plate. The protein in the medium was precipitated with the addition of 8 μl 6N trichloroacetic acid. The plate was incubated at 60° C. for 30 minutes and then centrifugation at 2500 rpm for 10 minutes to remove sediments. 80 μl supernatants were carefully removed to a new clean plate and added with an equal volume of 2% 4-(Dimethylamino)benzaldehyde (D2004, Sigma) dissolved in glacial acetic acid. The absorbance at 480 nm wavelength derived from Kyn was measured using a PHERAstar FS plate reader (BMG LABTECH). The IC50 for each compound was derived from fitting the dose-response data to the four-parameter logistic model by using XLfit software (IDBS).

plasma protein = experiment: Plasma Protein Binding Assay (equilibrium dialysis); type: in vitro ADME; conditions: 50% plasma, Human plasma, 37° C., read-out: Plasma Protein Binding assay (fu %) Human
Method: Plasma Protein Binding Assay:
To evaluate the plasma protein binding extent, the bound (fb) and unbound (fu) fractions of test compound will be determined in vitro by equilibrium dialysis approach, using a 96-well dialysis device (HT Dialysis, Gales Ferry, Conn., USA). The equilibrium dialysis will be conducted in duplicate. A hundred and fifty μL of 50% plasma spiked with the test compound (final concentration of 5 μM) will be added into the donor side and 150 μL of Phosphate Buffer (PB) (0.002% Tween-80) into the corresponding receiving side. The device will be then sealed with adhesive film and shook at 80 rpm in the water bath at 37° C. for 6 h. At the end of incubation, 10 μL plasma sample will be transferred from the donor side into a 1.5 mL microcentrifuge tube, added with 90 μL PB (0.002% Tween-80), vortexed well and proteins precipitated by acetonitrile containing internal standard (IS). Ninety μL of PB (0.002% Tween-80) sample will be transferred from the receiver side into a 1.5 mL microcentrifuge tube, added with 10 μL 50% blank plasma, vortexed well and proteins precipitated by acetonitrile containing IS.
For recovery check, […] of the donor side loading samples will be aliquoted into a 1.5 mL microcentrifuge tube (in duplicate), added with 90 μL PB (0.002% Tween-80), vortexed well and proteins precipitated by acetonitrile containing IS.
For plasma stability check, 10 μL of the donor side loading samples will be aliquoted into a 1.5 mL microcentrifuge tube (in duplicate), incubated in the water bath at 37° C. for 6 h, added with 90 μL PB (0.002% Tween-80) solution at the end of the incubation, vortexed well and proteins precipitated by acetonitrile containing IS.
Appropriate LC-MS/MS methods will be developed for the analysis of the test or control compounds in the incubates.
The unbound fraction (fu) of the test compound and positive control compounds in 50% plasma will be calculated using the following equations.
Where CR is the area ratio of the test compounds to the IS in the receiving side, CD is the area ratio of the test compound to the IS in the corresponding donor side and D is the dilution factor of plasma.

[1] = HeLa cells, IDO1 induced by IFN-γ, 0.4 mM L-Trp, 48 hours incubation, Kyn absorbance at 480 nm, read-out: Cell-Based EC50 (nM) Hela IDO1

T1 sequence (P14902 whole entry): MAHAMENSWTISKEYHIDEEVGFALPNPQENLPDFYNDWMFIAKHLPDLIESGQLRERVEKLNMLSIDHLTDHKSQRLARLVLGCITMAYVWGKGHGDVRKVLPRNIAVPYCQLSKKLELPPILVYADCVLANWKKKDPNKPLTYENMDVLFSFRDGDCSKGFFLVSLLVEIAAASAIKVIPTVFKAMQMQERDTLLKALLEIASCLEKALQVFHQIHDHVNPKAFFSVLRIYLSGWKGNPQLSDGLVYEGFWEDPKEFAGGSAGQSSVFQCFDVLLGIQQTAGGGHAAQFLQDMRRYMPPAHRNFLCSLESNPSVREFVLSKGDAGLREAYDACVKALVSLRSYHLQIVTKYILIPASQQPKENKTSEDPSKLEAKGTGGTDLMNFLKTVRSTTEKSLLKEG

| Compound | EC50 (IDO1; [1]) | fraction unbound at 6 h, 5 μM (plasma protein) | EC50 (IDO1) |
| --- | --- | --- | --- |
| C[C@@H](c1nc2cc(C(=O)NC3CCC3)ccc2[nH]1)[C@H]1CC[C@@H](c2ccnc3ccc(F)cc32)CC1 [Example 4, N-cyclobutyl-2-((R)-1-((1s,4S)-4-(6-fluoroquinolin-4-yl)cyclohexyl)ethyl)-1H-benzo[d]imidazole-6-carboxamide] | 26.9 nM | 0.002 |  |
| Cc1cc(C(=O)NC2CCC2)cc2nc([C@H](C)[C@H]3CC[C@@H](c4ccnc5ccc(F)cc54)CC3)[nH]c12 [Example 10b, N-cyclobutyl-2-((S)-1-((1s,4R)-4-(6-fluoroquinolin-4 yl)cyclohexyl)ethyl)-7-methyl-1H-benzo[d]imidazole-5-carboxamide] | 17.1 nM |  |  |
| CC(c1nc2ccc(C(=O)NC3COC3)cc2[nH]1)C1CCC(c2ccnc3ccc(F)cc23)CC1 (stereo not drawn) [Example 11, 2-(1-(4-(6-fluoroquinolin-4-yl)cyclohexyl)ethyl)-N-(oxetan-3-yl)-1H-benzo[d]imidazole-6-carboxamide] | 84.1 nM |  |  |
| COCCNC(=O)c1ccc2nc([C@H](C)[C@H]3CC[C@H](c4ccnc5ccc(F)cc54)CC3)[nH]c2c1 [Example 12, 2-((R)-1-((1r,4R)-4-(6-fluoroquinolin-4-yl)cyclohexyl)ethyl)-N-(2-methoxyethyl)-1H-benzo[d]imidazole-6-carboxamide] | 959 nM |  |  |
| COCCNC(=O)c1ccc2nc([C@H](C)[C@H]3CC[C@@H](c4ccnc5ccc(F)cc54)CC3)[nH]c2c1 [Example 13, 2-((R)-1-((1s,4S)-4-(6-fluoroquinolin-4-yl)cyclohexyl)ethyl)-N-(2-methoxyethyl)-1H-benzo[d]imidazole-6-carboxamide] | 62.9 nM |  |  |
| C[C@@H](c1nc2ccc(C(=O)Nc3ccccc3)cc2[nH]1)[C@H]1CC[C@@H](c2ccnc3ccc(F)cc32)CC1 [Example 14, 2-((R)-1-((1s,4S)-4-(6-fluoroquinolin-4-yl)cyclohexyl)ethyl)-N phenyl-1H-benzo[d]imidazole-6-carboxamide] | 14.4 nM |  |  |
| C[C@@H](c1nc2ccc(C(=O)Nc3ccccc3)cc2[nH]1)[C@H]1CC[C@H](c2ccnc3ccc(F)cc32)CC1 [Example 15, 2-((R)-1-((1r,4R)-4-(6-fluoroquinolin-4-yl)cyclohexyl)ethyl)-N-phenyl-1H-benzo[d]imidazole-6-carboxamide] | 86.7 nM |  |  |
| C[C@@H](c1nc2ccc(C(=O)NCC3(O)CCC3)cc2[nH]1)[C@H]1CC[C@@H](c2ccnc3ccc(F)cc32)CC1 [Example 16, 2-((R)-1-((1s,4S)-4-(6-fluoroquinolin-4-yl)cyclohexyl)ethyl)-N-((1-hydroxycyclobutyl)methyl)-1H-benzo[d]imidazole-6-carboxamide] | > 1000 nM |  |  |
| C[C@@H](c1nc2ccc(C(=O)NCC3(O)CCC3)cc2[nH]1)[C@H]1CC[C@H](c2ccnc3ccc(F)cc32)CC1 [Example 17, 2-((R)-1-((1 r,4R)-4-(6-fluoroquinolin-4-yl)cyclohexyl)ethyl)-N-((1-hydroxycyclobutyl)methyl)-1H-benzo[d]imidazole-6-carboxamide] | > 1000 nM |  |  |
| COC1CCC(NC(=O)c2ccc3nc([C@H](C)[C@H]4CC[C@@H](c5ccnc6ccc(F)cc65)CC4)[nH]c3c2)CC1 (stereo partly drawn) [Example 18, 2-((R)-1-((1s,4S)-4-(6-fluoroquinolin-4-yl)cyclohexyl)ethyl)-N-(4-methoxycyclohexyl)-1H-benzo[d]imidazole-6-carboxamide] | 122 nM |  |  |
| COC1CCC(NC(=O)c2ccc3nc([C@H](C)[C@H]4CC[C@H](c5ccnc6ccc(F)cc65)CC4)[nH]c3c2)CC1 (stereo partly drawn) [Example 19, 2-((R)-1-((1r,4R)-4-(6-fluoroquinolin-4-yl)cyclohexyl)ethyl)-N-(4-methoxycyclohexyl)-1H-benzo[d]imidazole-6-carboxamide] | 193 nM |  |  |
| CC(c1nc2cc(C(=O)NC3CC3)c(F)cc2[nH]1)[C@H]1CC[C@@H](c2ccnc3ccc(F)cc32)CC1 (stereo partly drawn) [Example 20, N-cyclopropyl-6-fluoro-2-(1-((1s,4S)-4-(6-fluoroquinolin-4-yl)cyclohexyl)ethyl)-1H-benzo[d]imidazole-5-carboxamide] | 6.9 nM |  |  |
| CC(c1nc2c(F)c(F)c(C(=O)NC3CC3)cc2[nH]1)[C@H]1CC[C@@H](c2ccnc3ccc(F)cc32)CC1 (stereo partly drawn) [Example 21, N-cyclopropyl-4,5-difluoro-2-(1-((1s,4s)-4-(6-fluoroquinolin-4-yl)cyclohexyl)ethyl)-1H-benzo[d]imidazole-6-carboxamide] | 8.9 nM |  |  |
| C[C@H](c1nc2cnc(C(=O)NC3CC3)cc2[nH]1)[C@H]1CC[C@@H](c2ccnc3ccc(F)cc32)CC1 [Example 22a, N-cyclopropyl-2-((S)-1-((1s,4R)-4-(6-fluoroquinolin-4-yl)cyclohexyl)ethyl)-1H-imidazo[4,5-c]pyridine-6-carboxamide] | 267 nM | 0.0056 |  |
| C[C@@H](c1nc2cc(C(=O)NC3CC3)ncc2[nH]1)[C@H]1CC[C@@H](c2ccnc3ccc(F)cc32)CC1 [Example 22b, N-cyclopropyl-2-((R)-1-((1s,4s)-4-(6-fluoroquinolin-4-yl)cyclohexyl)ethyl)-3H-imidazo[4,5-c]pyridine-6-carboxamide] | 0.96 nM | 0.0047 |  |
| CNC(=O)c1cc2[nH]c([C@@H](C)[C@H]3CC[C@@H](c4ccnc5ccc(F)cc54)CC3)nc2cn1 [Example 23a, 2-((S)-1-((1s,4R)-4-(6-fluoroquinolin-4-yl)cyclohexyl)ethyl)-N-methyl-1H-imidazo[4,5-c]pyridine-6-carboxamide] | 223 nM | 0.0072 |  |
| CNC(=O)c1cc2[nH]c([C@H](C)[C@H]3CC[C@@H](c4ccnc5ccc(F)cc54)CC3)nc2cn1 [Example 23b, 2-((R)-1-((1s,4S)-4-(6-fluoroquinolin-4-yl)cyclohexyl)ethyl)-N-methyl-1H-imidazo[4,5-c]pyridine-6-carboxamide] | 3.83 nM | 0.0053 |  |
| C[C@@H](c1nc2cc(C(=O)NC3CC3)cnc2[nH]1)[C@H]1CC[C@@H](c2ccnc3ccc(F)cc32)CC1 [Example 24, N-cyclopropyl-2-((R)-1-((1s,4S)-4-(6-fluoroquinolin-4-yl)cyclohexyl)ethyl)-3H-imidazo[4,5-b]pyridine-6-carboxamide] | 24.9 nM |  |  |
| CC(c1nc2cc3c(=O)[nH]cnc3cc2[nH]1)[C@H]1CC[C@@H](c2ccnc3ccc(F)cc32)CC1 (stereo partly drawn) [Example 25, 2-(1-((1s,4s)-4-(6-fluoroquinolin-4-yl)cyclohexyl)ethyl)-3,7-dihydro-8H-imidazo[4,5-g]quinazolin-8-one] | 82.4 nM |  |  |
| CCNC(=O)c1cc2nc([C@H](C)[C@H]3CC[C@@H](c4ccnc5ccc(F)cc54)CC3)[nH]c2cn1 [Example 26, N-ethyl-2-((R)-1-((1s,4S)-4-(6-fluoroquinolin-4-yl)cyclohexyl)ethyl)-3H-imidazo[4,5-c]pyridine-6-carboxamide] | 0.77 nM |  |  |
| C[C@@H](c1nc2cc(F)c(F)cc2[nH]1)[C@H]1CC[C@@H](c2ccnc3ccc(F)cc32)CC1 [Example 27b, 4-((1S,4s)-4-((R)-1-(5,6-difluoro-1H-benzo[d]imidazol-2-yl)ethyl)cyclohexyl)-6-fluoroquinoline, reference compound] |  | 0.00034 | 0.42 nM |
